The text below walks through data of patent US8334308B2, “Renin inhibitors” (Merck Sharp & Dohme Corp., priority 2007, dated 2012).

The target in one assay is T1, renin in human plasma (Homo sapiens, UniProt P00797).
T1 construct: host or cells: recombinant renin of unstated origin added to human plasma from 10 normal donors
T1 sequence (P00797 67-406): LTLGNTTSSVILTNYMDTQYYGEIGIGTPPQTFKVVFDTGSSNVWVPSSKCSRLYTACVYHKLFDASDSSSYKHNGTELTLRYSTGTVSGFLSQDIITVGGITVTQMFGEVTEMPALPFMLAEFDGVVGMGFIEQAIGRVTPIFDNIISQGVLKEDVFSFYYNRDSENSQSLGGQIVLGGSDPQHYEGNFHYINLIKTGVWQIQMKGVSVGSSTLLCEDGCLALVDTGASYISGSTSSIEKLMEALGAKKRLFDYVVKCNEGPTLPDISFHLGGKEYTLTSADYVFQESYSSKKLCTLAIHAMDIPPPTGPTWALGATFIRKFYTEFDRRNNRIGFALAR
In words: Inhibition of renin in human plasma (enzymatic in vitro assay, Ang I EIA). The format is biochemical. Conditions: human plasma from 10 normal donors, 37° C. 2 h. The procedure: Inhibition of Renin in Human Plasma
The enzymatic in vitro assay was performed in 384-well polypropylene plates (Nunc). The assay buffer consisted of PBS (Gibco BRL) including 1 mM EDTA and 0.1% BSA. The reaction mixture was composed of 80 μL, per well of human plasma, enzyme, Ang I-antibodiesmix and 5 μL of renin inhibitors in DMSO. The human plasma mix was premixed at 4° C. and consists of […]
human plasma from 10 normal donors human recombinant renin (3 μM)
The mixtures were then incubated at 37° C. for 2 h.
To determine the enzymatic activity and its inhibition, the accumulated Ang I was detected by an enzyme immunoassay (EIA) in 384-well plates (Nunc). 10 μL of the reaction mixture or standards were transferred to immuno plates which were previously coated with a covalent complex of Ang I and bovine serum albumin (Ang I-BSA). 70 μL assay buffer were added and the plates were incubated at 4° C. overnight.

A further assay addresses T2, human recombinant renin (Homo sapiens, UniProt P00797).
T2 sequence (P00797 67-406): T1 sequence (P00797 67-406)
In words: Inhibition of human recombinant renin (enzymatic in vitro assay, Ang I EIA). The format is biochemical. Conditions: human recombinant renin 40 pM, buffer, 37° C. 3 h. The protocol: Inhibition of Human Recombinant Renin
The enzymatic in vitro assay was performed in 384-well polypropylene plates (Nunc). The assay buffer consisted of PBS (Gibco BRL) including 1 mM EDTA and 0.1% BSA. The reaction mixture were composed of 47.5 μL per well of an enzyme mix and 2.5 μL of renin inhibitors in DMSO. The enzyme mix was premixed at 4° C. and consists of the following components: […]
human recombinant renin (40 pM) synthetic human angiotensin(1-14) (0.5 μM) hydroxyquinoline sulfate (1 mM)
The mixtures were then incubated at 37° C. for 3 h. The enzyme reaction was stopped by placing the reaction plate on wet ice.
To determine the enzymatic activity and its inhibition, the accumulated Ang I was detected by an enzyme immunoassay (EIA) in 384-well plates (Nunc). 5 μL of the reaction mixture or standards were transferred to immuno plates which were previously coated with a covalent complex of Ang I and bovine serum albumin (Ang I-BSA). 75 μL of Ang I-antibodies in assay buffer above including 0.01% Tween 20 were added and the plates were incubated at 4° C. overnight.
An alternative protocol could be used by stopping the enzymatic reaction with 0.02N final concentration of HCl. 5 μL of the reaction mixture or standards were transferred to immuno plates and 75 μL of Ang I-antibodies in assay buffer above including 0.01% Tween 20 were added and the plates were incubate at RT for 4 h.

As for `Cc1cc(Cl)c(OCCOc2ccc(CC(CN)c3ccc(-c4ccccc4Cl)cc3C)cc2)c(Cl)c1` (stereo not drawn) [Example 1, 2-(2′-Chloro-3-methyl-biphenyl-4-yl)-3-{4-[2-(2,6-dichloro-4-methyl-phenoxy)-ethoxy]-phenyl}-propylamine], the IC50 (in general, the concentration at which inhibition is half-maximal) amounted to 796 nM on renin in human plasma and 6 nM on human recombinant renin.

In the case of `COCCc1ccccc1-c1ccc(C(CN)Cc2ccc(OCCOc3c(Cl)cc(C)cc3Cl)cc2)c(C)c1` (stereo not drawn) [Example 2, 3-{4-[2-(2,6-dichloro-4-methylphenoxy)ethoxy]phenyl}-2-[2′-(2-methoxyethyl)-3-methylbiphenyl-4-yl]propan-1-amine], the IC50 against renin in human plasma was found to be 1920 nM; on human recombinant renin, 19.7 nM.

In the case of `COCCCc1ccccc1-c1ccc(C(CN)Cc2ccc(OCCOc3c(Cl)cc(C)cc3Cl)cc2)c(C)c1` (stereo not drawn) [Example 3, 3-{4-[2-(2,6-dichloro-4-methylphenoxy)ethoxy]phenyl}-2-[2′-(3-methoxypropyl)-3-methylbiphenyl-4-yl]propan-1-amine], the IC50 is 116 nM against renin in human plasma and 0.4 nM on human recombinant renin.

Turning to `COCCOc1ccccc1-c1ccc(C(CN)Cc2ccc(OCCOc3c(Cl)cc(C)cc3Cl)cc2)c(C)c1` (stereo not drawn) [Example 4, 3-{4-[2-(2,6-dichloro-4-methylphenoxy)ethoxy]phenyl}-2-[2′-(2-methoxyethoxy)-3-methylbiphenyl-4-yl]propan-1-amine], the IC50 is 1500 nM against renin in human plasma and 7.4 nM on human recombinant renin.

For the compound `COCCCOc1ccccc1-c1ccc(C(CN)Cc2ccc(OCCOc3c(Cl)cc(C)cc3Cl)cc2)c(C)c1` (stereo not drawn) [Example 5, 3-{4-[2-(2,6-dichloro-4-methylphenoxy)ethoxy]phenyl}-2-[2′-(3-methoxypropoxy)-3-methylbiphenyl-4-yl]propan-1-amine], the IC50 was determined as 1160 nM against renin in human plasma and 1.7 nM on human recombinant renin.

For the compound `Cc1cc(Cl)c(OCCOc2ccc(CC(CN)c3ccc(-c4ccccc4Cl)cc3)cc2)c(Cl)c1` (stereo not drawn) [Example 6, 2-(2′-chlorobiphenyl-4-yl)-3-{4-[2-(2,6-dichloro-4-methylphenoxy)ethoxy]phenyl}propan-1-amine], the IC50 on human recombinant renin turned out to be 44.4 nM.

For the compound `Cc1cc(Cl)c(OCCOc2ccc(CC(CN)c3ccc(-c4ccccc4Cl)cc3F)cc2)c(Cl)c1` (stereo not drawn) [Example 7, 2-(2′-chloro-3-fluorobiphenyl-4-yl)-3-{4-[2-(2,6-dichloro-4-methylphenoxy)ethoxy]phenyl}propan-1-amine], the IC50 at renin in human plasma came to 1150 nM; on human recombinant renin it was 7 nM.

As to `COc1cc(-c2ccccc2Cl)ccc1C(CN)Cc1ccc(OCCOc2c(Cl)cc(C)cc2Cl)cc1` (stereo not drawn) [Example 8, 2-(2′-chloro-3-methoxybiphenyl-4-yl)-3-{4-[2-(2,6-dichloro-4-methylphenoxy)ethoxy]phenyl}propan-1-amine], the IC50 on renin in human plasma came to 3620 nM; on human recombinant renin, 47.6 nM.

Regarding `Cc1cc(Cl)c(OCCOc2ccc(CC(CN)c3ccc(-c4ccccc4Cl)cc3Cl)cc2)c(Cl)c1` (stereo not drawn) [Example 10, 2-(2′,3-dichlorobiphenyl-4-yl)-3-{4-[2-(2,6-dichloro-4-methylphenoxy)ethoxy]phenyl}propan-1-amine], the IC50 at renin in human plasma worked out at 764 nM; at human recombinant renin, 0.5 nM.

As for `COCCCc1ccccc1-c1cc(C(F)(F)F)c(C(CN)Cc2ccc(OCCOc3c(Cl)cc(C)cc3Cl)cc2)cn1` (stereo not drawn) [Example 11, 3-{4-[2-(2,6-dichloro-4-methylphenoxy)ethoxy]phenyl}-2-[6-[2-(3-methoxypropyl)phenyl]-4-(trifluoromethyl)pyridin-3-yl]propan-1-amine], the IC50 was 21 nM against renin in human plasma and 0.3 nM on human recombinant renin.

`COCCCc1cccc(C)c1-c1ccc(C(CN)Cc2ccc(OCCOc3c(Cl)cc(C)cc3Cl)cc2)c(C)c1` (stereo not drawn) [Example 12, 3-{4-[2-(2,6-dichloro-4-methylphenoxy)ethoxy]phenyl}-2-[2′-(3-methoxypropyl)-3,6′-dimethylbiphenyl-4-yl]propan-1-amine]: the figures for the IC50 on renin in human plasma and on human recombinant renin were 643 nM and 0.2 nM, respectively.

For the compound `COCCCc1ccccc1-c1ccc(C(CN)Cc2ccc(OCCOc3c(Cl)cc(C)cc3Cl)cc2)c(C(F)(F)F)c1` (stereo not drawn) [Example 13, 3-{4-[2-(2,6-dichloro-4-methylphenoxy)ethoxy]phenyl}-2-[2′-(3-methoxypropyl)-3-(trifluoromethyl)biphenyl-4-yl]propan-1-amine], the IC50 against renin in human plasma turned out to be 156 nM; at human recombinant renin it was 0.9 nM.

`Cc1cc(Cl)c(OCCOc2ccc(CC(CN)c3ccc(-c4ccccc4CCC#N)cc3C)cc2)c(Cl)c1` (stereo not drawn) [Example 14, 3-[4′-(2-amino-1-{4-[2-(2,6-dichloro-4-methylphenoxy)ethoxy]benzyl}ethyl)-3′-methylbiphenyl-2-yl]propanenitrile]: the IC50 on renin in human plasma was 544 nM; on human recombinant renin, 10.6 nM.

In the case of `COCCCc1ncccc1-c1ccc(C(CN)Cc2ccc(OCCOc3c(Cl)cc(C)cc3Cl)cc2)c(C)c1` (stereo not drawn) [Example 16, 3-{4-[2-(2,6-dichloro-4-methylphenoxy)ethoxy]phenyl}-2-{4-[2-(3-methoxypropyl)pyridin-3-yl]-2-methylphenyl}propan-1-amine], the IC50 on renin in human plasma was 94.6 nM; at human recombinant renin it was 1.1 nM.

For `COCCCc1c(-c2ccc(C(CN)Cc3ccc(OCCOc4c(Cl)cc(C)cc4Cl)cc3)c(C)c2)ccc[n+]1[O-]` (stereo not drawn) [Example 21, 3-{-4-[2-(2,6-dichloro-4-methylphenoxy)ethoxy]phenyl}-2-{4-[2-(3-methoxypropyl)-1-oxidopyridin-3-yl]-2-methylphenyl}propan-1-amine], the IC50 on renin in human plasma was 103 nM; at human recombinant renin it was 4.3 nM.

In the case of `Cc1cc(Cl)c(OCCOc2ccc(CC(CN)c3ccc(-c4ccccc4CCC(=O)N(C)C)cc3C)cc2)c(Cl)c1` (stereo not drawn) [Example 24, 3-[4′-(2-amino-1-{4-[2-(2,6-dichloro-4-methylphenoxy)ethoxy]benzyl}ethyl)-3′-methylbiphenyl-2-yl]-N—N-dimethylpropanamide], the results for the IC50 against renin in human plasma and at human recombinant renin were above 1110 nM and 30.8 nM, respectively.

In turn, `CC(=O)NCCc1ccccc1-c1ccc(C(CN)Cc2ccc(OCCOc3c(Cl)cc(C)cc3Cl)cc2)c(C)c1` (stereo not drawn) [Example 30, 2-{2′-[2-(acetylamino)ethyl]-3-methylbiphenyl-4-yl}-3-{4-[2-(2,6-dichloro-4-methylphenoxy)ethoxy]phenyl}propan-1-aminium chloride] registered an IC50 on renin in human plasma of 9.6 nM.

On to `COCCCc1ccccc1-c1ccc(C(CN)Cc2cc(F)cc(F)c2)c(C)c1` (stereo not drawn) [Example 32, 3-(3,5-difluorophenyl)-2-[2′-(3-methoxypropyl)-3-methylbiphenyl-4-yl]propan-1-amine], for which the figures for the IC50 at renin in human plasma and on human recombinant renin were above 10000 nM and 285 nM, respectively.

In the case of `Cc1cc(Cl)c(OCCOc2ccc(CC(CN)c3ccc(-c4c(Cl)cccc4Cl)cc3C)cc2)c(Cl)c1` (stereo not drawn) [Example 39], the figures for the IC50 against renin in human plasma and on human recombinant renin were 2320 nM and 16.3 nM, respectively.
